Results: patent publication US6789546B2, “Filters for preventing or reducing tobacco smoke-associated injury in the aerodigestive tract of a subject” (Technion Research & Development Foundation Ltd., priority 2001, dated 2004)

Key:
oral peroxidase (OPO) [1] = assay type: biochemical, human; settings: for OPO activity in the presence of aldehydes: 2 mM acetylaldehyde, 80 μM acrolein, 20 μM crotonaldehyde, TS-treated saliva
oral peroxidase (OPO) [2] = assay: OPO activity in saliva exposed in vitro to tobacco smoke (NBS-SCN assay); assay type: biochemical, human
MPO = molecular target: T1, MPO (Homo sapiens, UniProt P05164); assay: Control MPO activity (commercial MPO) in the presence of dapsone; assay type: biochemical; settings: 150 μM dapsone
T1 construct: purchased
T1 sequence (P05164 49-745): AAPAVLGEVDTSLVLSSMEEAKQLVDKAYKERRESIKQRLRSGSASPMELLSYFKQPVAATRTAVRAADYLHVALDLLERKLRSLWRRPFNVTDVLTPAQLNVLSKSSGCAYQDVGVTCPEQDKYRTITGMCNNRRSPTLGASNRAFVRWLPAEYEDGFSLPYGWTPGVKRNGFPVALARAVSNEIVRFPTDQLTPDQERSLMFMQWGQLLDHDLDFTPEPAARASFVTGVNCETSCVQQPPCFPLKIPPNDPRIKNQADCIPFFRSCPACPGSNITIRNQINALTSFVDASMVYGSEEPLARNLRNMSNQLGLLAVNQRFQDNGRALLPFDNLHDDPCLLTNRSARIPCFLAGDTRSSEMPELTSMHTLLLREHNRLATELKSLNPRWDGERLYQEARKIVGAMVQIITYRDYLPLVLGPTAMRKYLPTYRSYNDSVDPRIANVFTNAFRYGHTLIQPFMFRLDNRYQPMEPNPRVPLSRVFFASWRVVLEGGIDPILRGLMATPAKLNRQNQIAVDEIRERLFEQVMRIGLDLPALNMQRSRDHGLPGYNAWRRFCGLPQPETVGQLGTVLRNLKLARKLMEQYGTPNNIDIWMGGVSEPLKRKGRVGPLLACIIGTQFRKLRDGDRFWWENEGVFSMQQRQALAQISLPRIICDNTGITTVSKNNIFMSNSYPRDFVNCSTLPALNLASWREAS
Experimental: FIG. 7 is a data plot depicting the effect of increasing concentrations of dapsone (4-aminophenylsulfone) on OPO activity in TS-treated saliva. Abbreviations: NO.1, NO.2, NO.3, NO4 and NO.5 correspond to saliva from 5 different subjects and plasma corresponds to commercial MPO.
Analysis of OPO Activity: OPO activity was measured according to the 2-nitrobenzoic-thiocyanate (NBS-SCN) assay, as previously described (20). Briefly, DTNB is reduced to NBS by addition of β-mercaptoethanol and decreases in NBS concentration by reaction with OSCN^−, a product of OPO, are monitored spectrophotometrically by measuring absorbance at 412 nm at pH 5.6 (18). One unit of enzyme activity was defined as the activity required to cleave 1 μmol of NBS/min at 22° C., using a molar extinction coefficient of 12,800 (20).
Thus, in order to determine which of the MPO or SPO activity components of OPO activity are lost as a result of exposure to TS, OPO activity in TS-treated saliva was measured in the presence of increasing concentrations of 50-150 μM dapsone.

lymphocytes [3] = assay: Lymphocyte survival by Trypan Blue exclusion assay; assay type: cell-based, human
Experimental: Saliva Collection: Saliva was collected from healthy subjects, 3 males and 3 females ranging from 21-47 years of age, under non-stimulatory conditions in a quiet room during the morning between 8 am and noon. Saliva collection was performed at least 1 h after eating by spitting into a recipient for 10 minutes, as previously described (43). Following collection, saliva was immediately centrifuged at 800×g for 10 min at 4° C. to remove cells and cell debris and the resulting supernatant was used for biochemical analyses.
(§1) Lymphocyte Isolation: Blood from 10 consenting, healthy, non-smoking subjects, 5 males and 5 females ranging from 18-55 years of age, was drawn into EDTA-containing vacutainers. Lymphocytes were isolated by Ficoll-Hypaque (Sigma) gradient centrifugation according to the manufacturer's instructions and lymphocytes were suspended at 10^7 cells/ml PBS (Beit-Ha'emek Industries, Israel), and used immediately in experiments.
(§2) A reproducible vacuum was created in the flask and upon application of vacuum for 5 s, 80-100 ml of TS from the lit cigarette was drawn into the flask. […] Saliva treatment of lymphocytes was performed by suspending these in PBS supplemented with 30% (v/v) saliva. Following treatment with the TS of 0.5 cigarettes, flasks were incubated at 37° C. for 20 min in a metabolic shaker and subjected to a further 4 treatments with TS, as described above.
Measurement of Lymphocyte Survival: Lymphocyte viability was assessed by Trypan Blue exclusion assay.

lymphocytes [4] = assay: Western immunoblotting analysis of lymphocyte protein carbonylation; assay type: cell-based, human
Description: Western Immunoblotting Analysis of Protein Carbonylation: Salivary proteins were separated by SDS-PAGE using a 10% gel and electro-blotted onto nitrocellulose membranes, as previously described (14). The Oxyblot Kit (Intergen Co, Purchase N.Y.) was used with anti-dinitrophenyhydrazine (DNPH) antibodies to label carbonylated proteins. Protein carbonylation levels were then visualized by reacting labelled blots with a secondary HRP-conjugated anti-rabbit antibody followed by ECL detection of secondarily labelled proteins, as previously described (14).
as §1
as §2, with “Treatment of Lymphocytes With TS in the Presence of Saliva: Exposure of lymphocytes to TS was carried out by attaching a Time cigarette (capable of removing particles>[…] in diameter) in which the filter tip was removed to a Cambridge filter which was combined with a vacuum system to aspirate gas-phase TS inside sealed 250 ml flasks containing lymphocytes suspended in 12-15 ml PBS, as previously described (14, 15). A” for “A”
Western Immunoblotting Analysis of Lymphocyte Protein Carbonylation: Lymphocytes were washed twice in PBS following treatment by centrifugation at 2,000 rpm for 2 minutes to remove saliva and other components of the incubation medium. Lymphocytes were then centrifuged at 14,000 rpm for 1 minute and lysed by sonication for 10 seconds in lysis buffer containing 20 mM Tris pH 7.4, 1 mM EGTA, 1 mM PMSF, 50 μM NaVO4 and 50 mM NaF. Lysates were centrifuged at 14,000 rpm for 1 minute and supernatants were harvested for analysis. Carbonylation analysis was performed as described above.

[5] = lymphocytes in PBS, 20 minutes, 80 μM acrolein, 20 μM crotonaldehyde or 2 mM acetaldehyde

Question: Which “prevention of KCN-associated loss of OPO activity” value (oral peroxidase (OPO) [1]; 1 mM OH—CO, saliva treated 2 min with 1 mM KCN) does the source give for C/C1=C2/[N-][C@H]([C@H](CC(N)=O)[C@@]2(C)CCC(=O)NC[C@@H](C)OP(=O)([O-])O[C@H]2[C@@H](O)[C@@H](n3cnc4cc(C)c(C)cc43)O[C@@H]2CO)[C@]2(C)N=C(/C(C)=C3N=C(/C=C4N=C1[C@@H](CCC(N)=O)C\4(C)C)[C@@H](CCC(N)=O)[C@]\3(C)CC(N)=O)[C@@H](CCC(N)=O)[C@]2(C)CC(N)=O.[Co+3].[OH-] [OH—CO, hydroxocobalamin] here?
Answer: The value was “completely prevent”.

Question: And the “prevention of loss of OPO activity in saliva” value (oral peroxidase (OPO) [2]; increasing amounts of OH—CO (0.5, 1, 2 mM, FIG. 14), 40 min after treatment with TS)?
Answer: The value was “prevent, to a significant extent”.

Question: What about the “prevention of loss of OPO activity by preincubation” value (oral peroxidase (OPO) [2]; preincubation of saliva with OH—CO, TS or KCN) of the same compound?
Answer: Its value is “could prevent both TS- and KCN-associated loss of OPO activity”.

Question: N#C[S-].[K+] [KSCN, potassium thiocyanate] was tested. Which “protection against TS-induced loss of OPO activity” value (oral peroxidase (OPO) [2]) did it give?
Answer: The value was “significant protection against loss of OPO activity”.

Question: Which “control MPO activity” value (MPO) does the source give for Nc1ccc(S(=O)(=O)c2ccc(N)cc2)cc1 [dapsone, 4-aminophenylsulfone] here?
Answer: Its value is “unaffected”.

Question: What about the “loss of OPO activity in the presence or absence of the agent” value (oral peroxidase (OPO) [2]; TS-treated saliva containing ~40% MPO, 150 μM dapsone) of the same compound?
Answer: The value was “similar”.

Question: What about the “Loss of OPO activity” value (oral peroxidase (OPO) [2]; TS-treated saliva in the presence of 150 μM dapsone) of the same compound?
Answer: The value was 60-85%.

Question: For O=C1O[C@H]([C@@H](O)CO)C(O)=C1O [ascorbate], which lymphocyte survival rate (lymphocytes [3]; ascorbate (1 mM) added to PBS containing FeCl3 (90 μM), no saliva, 20 min (FIG. 23 column 8)) is on record?
Answer: The lymphocyte survival rate was 77%.

Question: What about the lymphocyte survival rate (lymphocytes [3]; ascorbate (1 mM) added to saliva-containing medium without exposure to TS, 20 min (FIG. 23 column 6)) of the same compound?
Answer: Its lymphocyte survival rate is 78%.

Question: Which “effect on death rate of lymphocytes exposed to TS and saliva” value (lymphocytes [3]) does the source give for CC(=O)N[C@@H](CS)C(=O)O [NAC, N-acetylcysteine] here?
Answer: The value was “did not alter the death rate”.

Question: How did the “OPO activity in the presence of aldehydes” value (oral peroxidase (OPO) [1]) turn out when CC=O [acetaldehyde] was run?
Answer: Its value is “unaffected”.

Question: What about the death rates (lymphocytes [3]; both, human) of the same compound?
Answer: The death rates was 92.7%.

Question: For N[C@@H](CCC(=O)N[C@@H](CS)C(=O)NCC(=O)O)C(=O)O [GSH, L-γ-glutamyl-1-cysteine-glycine], which “effect on death rate of lymphocytes exposed to TS and saliva” value (lymphocytes [3]) is on record?
Answer: Its value is “partially prevented”.

Question: What about the “protection assessed by lymphocyte protein carbonylation levels” value (lymphocytes [4]; TS and saliva, 20 minutes, 1 mM agent (FIG. 20)) of the same compound?
Answer: The value was “unique protection”.

Question: What about the “protection from aldehyde-induced protein carbonylation” value (lymphocytes [4]; aldehydes + 1 mM GSH, 20 min (FIG. 21)) of the same compound?
Answer: Its value is “protection provided by GSH was similar”.

Question: And the “loss of OPO activity in TS-treated saliva in the presence or absence of the agent” value (oral peroxidase (OPO) [2]; 1 mM agent)?
Answer: The value was “similar”.

Question: What does the source list for C/C=C/C=O [crotonaldehyde]?
Answer: OPO activity in the presence of aldehydes (oral peroxidase (OPO) [1]): unaffected; death rates (lymphocytes [3]; both, human): 75.3%; survival rates (lymphocytes [3]; [5]): 80.3%

Question: How did the “inhibition of OPO activity” value (oral peroxidase (OPO) [1]; saliva exposed 2 h to 1 mM ascorbate or 100 μM FeCl3) turn out when [Cl][Fe]([Cl])[Cl] [FeCl3] was run?
Answer: The value was “did not inhibit OPO activity”.

Question: C=CC=O [acrolein] was tested. Which “OPO activity in the presence of aldehydes” value (oral peroxidase (OPO) [1]) did it give?
Answer: The value was “unaffected”.

Question: And the survival rates (lymphocytes [3]; acrolein, first value of 'respectively' (taken as without saliva), time not given)?
Answer: Its survival rates is 57.9%.

Question: And the survival rates (lymphocytes [3]; acrolein, second value of 'respectively' (taken as with saliva), time not given)?
Answer: The survival rates was 66.4%.

Question: And the survival rates (lymphocytes [3]; [5])?
Answer: The survival rates was 63.3%.

Question: What about the death rates (lymphocytes [3]; lymphocytes in PBS, 80 minutes, 80 μM acrolein, 20 μM crotonaldehyde or 2 mM acetaldehyde) of the same compound?
Answer: The death rates was 57.3%.

Question: What about the “lymphocyte protein carbonylation levels” value (lymphocytes [4]; acrolein with saliva versus acrolein alone (FIG. 22: 80 μM, 20 min)) of the same compound?
Answer: Its value is “did not enhance carbonylation levels”.

Question: Which lymphocyte survival rate (lymphocytes [3]; TS and saliva treatment, 80 minutes, 1 mM agent) does the source give for CC(=O)N(O)CCCCCNC(=O)CCC(=O)N(O)CCCCCNC(=O)CCC(=O)N(O)CCCCCN [deferoxamine] here?
Answer: The lymphocyte survival rate was 23.7%.

Question: How did the “lymphocyte protein carbonylation levels” value (lymphocytes [4]; uric acid added to suspension medium instead of saliva (10 or 100 μM, FIG. 18), no TS) turn out when O=c1[nH]c(=O)c2[nH]c(=O)[nH]c2[nH]1 [uric acid] was run?
Answer: The value was “reduced carbonylation levels”.
